Experimental data as given in patent US20070213686A1, “System and method for prevention of radiocontrast induced nephropathy” (priority 2003, published 2007).
Structures can show the parent of a compound that is named as a salt.

Tests used:
[1] = Intra-renal delivery of fenoldopam, renal artery blood flow; type: in vivo, human; conditions: intra-renal delivery at about 0.1 and about 0.2 mcg/kg/min
Experimental: At the time of the procedure, a switch to local delivery can easily be made with the previously described bifurcated catheter. […] Therefore another titration (in this situation most frequently migrating upward) is performed according to further embodiments, starting at the systemic dose, and moving towards a tolerated local dose, for the duration of the intended catheterization. Post-procedure, if the specialized bifurcated catheter is preferably to be removed, then the administration could be returned to a systemic dose, with or without additional hydration concurrently.

[2] = cited from earlier work
[3] = system: hypovolemic dogs receiving contrast; conditions: cited from earlier work
[4] = system: contrast nephropathy; conditions: cited from earlier work
[5] = systemic regimens; nausea and vomiting, flushing, hypotension, tachycardia, hypokalemia, ST/T-wave changes, dizziness, dyspnea; cited from earlier work
[6] = Local renal papaverine, renal blood flow in human subjects; type: in vivo; conditions: local renal doses of about 2 mg/min and about 3 mg/min

SMILES: Oc1ccc(C2CNCCc3c2cc(O)c(O)c3Cl)cc1 (stereo not shown) [fenoldopam, fenoldopam mesylate]
- renal artery blood flow [1]: significant and immediate increases in renal artery blood flow
- increase in renal blood flow from baseline ([2]; normal volunteers, 0.1 mcg/kg/min): approximately 40%
- increment in renal blood flow ([2]; patients with a mean serum creatinine of 2.6 mg/dL, 0.1 mcg/kg/min): 16%
- renal vasodilation ([2]; systemic doses as low as approximately 0.01 through approximately 0.5 mcg/kg/min IV): dose-dependent renal vasodilation
- renal blood flow and renal function (glomerular filtration rate) [3]: prevented reduction in both renal blood flow and renal function
- efficacy in preventing contrast nephropathy, 0.2 vs 0.1 mcg/kg/min ([4]; 0.2 mcg/kg/min compared with 0.1 mcg/kg/min): greater efficacy
- benefit over saline (CONTRAST trial) ([4]; 300 patients, 0.05-0.1 mcg/kg/min systemic IV over 12 hours): no benefit
- renal function in high-risk patients undergoing contrast procedures ([4]; small studies incl. randomized, double blind, placebo-controlled trial, 0.05-0.5 mcg/kg/min for 4-6 hours, started prior to contrast): attenuated worsening of renal function
- frequency of common side effects other than headache [5]: ≤ 5%

SMILES: COc1ccc(Cc2nccc3cc(OC)c(OC)cc23)cc1OC [papaverine]
- renal blood flow rates [6]: increase renal blood flow rates
